From US20230000835A1, “LYSINE-SPECIFIC HISTONE DEMETHYLASE INHIBITORS FOR THE TREATMENT OF MYELOPROLIFERATIVE NEOPLASMS” (Imago Biosciences, Inc., priority 2019, published 2023)
Counter-ions that a name gives are not always drawn.

Columns and labels:
[1] = test system: patients with myelofibrosis; assay: Phase 2b clinical study in myelofibrosis: spleen volume at week 12; type: in vivo, human
Protocol: A multi-center, open label, dose-range finding study to assess the safety, optimally effective dosing rules, steady-state pharmacokinetics and pharmacodynamics of Compound 1 orally once daily in patients with myelofibrosis was conducted in a Phase 1/2a study. • Primary objectives were to evaluate, in MF patients the effect of Compound 1 on: Safety and tolerability • Pharmacokinetics (Phase 1/2a only) • Reduction in spleen volume
This study initiated as a Phase 1/2a study assessing the safety of the starting dose, an 85 day duration of treatment, and the pharmacokinetic and pharmacodynamic effects of Compound 1, with transition to a Phase 2b study incorporating changes supported by the earlier pharmacokinetic and pharmacodynamic studies and safety assessments. This study consisted of two treatment periods: the Initial Treatment Period (ITP), followed by the Additional Treatment Period (ATP). Patients commenced enrolment in the Phase 2b portion of the study, in which the ITP has been extended such that patients were treated daily for 169 days. The ATP, also extended, offered treatment to qualifying patients for an additional 169 days.
Initial Treatment Period. During the ITP, patients initially returned for study assessments twice weekly for the first week (ITP Days 0, 3 and 7); post-dosing of 3 patients at the new Ds, the DSMC convened to assess the necessity of the Day 3 visit. Patients returned weekly for the next 7 weeks (ITP Days 14, 21, 28, 35, 42, 49 and 56), at least bi-weekly for 8 weeks (ITP Days 70, 84, 98 and 112) and then monthly for 8 weeks (ITP Days 140 and 168). It was anticipated that by Week 8 (Day 56) patients will have achieved a stable dose, with weekly titrations no longer necessary. For the exceptional patient whose dose had not stabilized, weekly visits continued at the PI's discretion (note: bi-weekly visits may also continue post Day 112). On Days 84 and 168, patients underwent abdominal magnetic resonance imaging (MRI), or computerized tomography (CT) if the patient was not a candidate for MRI. On Day 168, bone marrow sampling was also required. […]

[2] = test system: patients with high-risk MF; assay: Clinical studies in myelofibrosis: safety and tolerability (adverse events); type: in vivo
Protocol: A multi-center, open-label study evaluating the safety, tolerability, steady-state pharmacokinetics and pharmacodynamics of Compound 1 administered orally once daily in patients with high-risk MF, including primary myelofibrosis (PMF), post-polycythemia vera myelofibrosis (PPV-MF), and post-essential thrombocythemia myelofibrosis (PET-MF) (collectively referred to as ‘MF’) was initiated as a Phase 1/2A study, and was expanded to a Phase 2b study.
This study was conducted at multiple sites. Up to 50 patients, eighteen years of age or older, with high-risk myelofibrosis were treated. The primary objectives included safety and tolerability, pharmacokinetics (PK; Phase 1/2A only) and spleen volume reduction (SVR). […] Key inclusion criteria included: high- or intermediate-2 risk myelofibrosis; per the Investigator's judgment have failed (refractory or resistant to, inadequately controlled by or intolerant of), or are not a candidate for, available approved therapy including ruxolitinib; platelet count ≥100K/μL; and, circulating blasts ≤10%.
Safety. […] Four SAEs attributed to Compound 1 (all Grade 3), including painful splenomegaly, headache, nausea and vomiting, and heart failure. There were 139 AEs of all grades attributed to Compound 1. The most common AEs across the 31 subjects from both of the above studies were thrombocytopenia (11 subjects, 35%), anemia (3 subjects, 10%) and nausea (1, 3%). The most common grade 3/4 AEs attributed to Compound 1 were Anemia (6 subjects, 19%) and neutropenia (3 subjects, 10%).

[3] = Phase 2b patients at Week 12, n=14

With `CN1CCN(C(=O)[C@H](CCCN[C@@H]2C[C@H]2c2ccc(F)cc2)NC(=O)c2ccc(-n3ccnn3)cc2)CC1` [Compound 1, N-[(2S)-5-{[(1R, 2S)-2-(4-fluorophenyl)cyclopropyl]amino}-1-(4-methylpiperazin-1-yl)-1-oxopentan-2-yl]-4-(1H-1,2,3-triazol-1-yl)benzamide, bis-tosylate salt] the “patients with a reduction of spleen volume of ≥20%” value [1, 3] was 29%, the “patients with a reduction of spleen volume of ≥35%” value [1, 3] was 14% and the “median change of spleen volume to Wk 12” value ([1]; Phase 2b patients, n=14) was −15%. The “subjects with anemia (most common AEs)” value ([2]; 31 subjects) was 10%, the “subjects with grade 3/4 Anemia attributed to the drug” value ([2]; 31 subjects) was 19% and the “subjects with grade 3/4 neutropenia attributed to the drug” value ([2]; 31 subjects) was 10%. The “subjects with nausea (most common AEs)” value ([2]; 31 subjects) was 3%, the “subjects with thrombocytopenia (most common AEs)” value ([2]; 31 subjects) was 35% and the tolerability ([2]; heterogeneous population of patients with MF) was “well tolerated”. The “number of AEs of all grades attributed to the drug” value ([2]; human, in vivo) was 139 and the “number of SAEs attributed to the drug (all Grade 3)” value ([2]; painful splenomegaly, headache, nausea and vomiting, heart failure) was “Four”.
